According to patent US5723494A, “Derivatives of glutamic and aspartic acids, a method of preparing them, and their use as drugs for enhancing memory and learning” (priority 1993, dated 1998):

Experiments:
[1] = molecular target: excitor amino-acid receptors of cortical membranes ("forebrain") of rats; assay: Inhibition of the specific binding of [3H]-glutamate to rat forebrain membranes; conditions: for IC50: rat forebrain membranes, 20 min, 37° C., pH 7.1
Source text: 6) Studies on binding to rat "forebrain" membranes
L-glutamate recognizes all three receptor subtypes indicated above, al though not selectively. It is therefore desirable to evaluate the capacity of each of the compounds of the invention to interact with the excitor amino-acid receptors of the CNS.
"Forebrain", that is, the cerebral cortex and the hippocampus, were selected as the receptor tissue and ^3 H-L-glutamate as the ligand for marking this heterogenous receptor population.
Rat cerebral tissue (forebrain without striated tissue) was therefore homogeneised cold in tris buffer at pH 7.4. After washing and centrifuging, the final pellet was resuspended in 50 volumes of tris HCl binding buffer at 7.1. 0.5 ml of receptor membrane thus obtained were then incubated, together with the radioactive tracer and the compounds under test, for 20 min at 37° C. The reaction was terminated by separating the bound radio-ligand from the free radio-ligand by filteration on glass-fibre filters which, after washing, were counted in a liquid scintillator (a β-counter) thus determining the radioactivity associated with the pellet. The specific binding was determined as the difference between the binding in the absence and in the presence of cold 3.6 mM L-glutamate.

[2] = Antiamnesic activity in the mouse (step-down passive avoidance, amnesia induced by ECS); format: in vivo, mouse (CD1 male); conditions: mouse; for Antiamnesic activity (in words) / ED50: OS; for change in vivo at 3 mg/kg / change in vivo at 10 mg/kg / change in vivo at 30 mg/kg / ED50 / change in vivo at 0.1 mg/kg / change in vivo at 1 mg/kg / change in vivo at 0.3 mg/kg: po; for change in vivo at 3 mg/kg: 3 mg/kg OS; for change in vivo at 3 mg/kg / change in vivo at 10 mg/kg / change in vivo at 30 mg/kg / change in vivo at 0.1 mg/kg / change in vivo at 1 mg/kg / change in vivo at 0.3 mg/kg: retest 24 h after training, read-out: Reversal of the amnesia (% vs controls), as the increase in the Step Down Latency; for change in vivo at 10 mg/kg: 10 mg/kg OS; for change in vivo at 30 mg/kg: 30 mg/kg OS; for ED50: 60 min before training, read-out: ID50 (antiamnesic activity, dose inhibiting the amnesic effect of the ECS by 50%); for change in vivo at 0.1 mg/kg: 0.1 mg/kg OS; for change in vivo at 1 mg/kg: 1 mg/kg OS; for change in vivo at 0.3 mg/kg: 0.3 mg/kg OS
Source text: 1) Antiamnesic activity in the mouse (step-down passive avoidance)
An electroconvulsive shock (ECS) produces retrograde amnesia in the test animal if applied immediately after the training received, for example, a harmful stimulus of a suitable intensity.
The object of the experiment was to study the effects of the compounds of the invention in antagonizing the amnesic effect of an ECS on the short-term memory consolidation process.
CD1 male mice which weighed about 30-35 g, and had not fasted were used. The equipment used was a rectangular plexiglass cage (21×21×40cm) with an electrifiable grid floor and a wooden cube (4×4×4 cm) fixed in the centre of the cage. The animals were treated orally with the product under test 60 minutes before the training.
The mouse was placed delicately on the wooden cube and the time it took to descend to the grid floor (SDL=step-down latency) was measured. When all four of the animal's paws were resting on the floor the continuous 0.2 mA shock started and the time taken by The mouse to remount the wooden cube (EL=escape latency) was measured.
The animals with an SDL of between 3 and 30 sec and with an EL of between 3 and 60 sec were used for retesting.
Immediately afterwards, a transcorneal ECS was applied with the use of the following parameters: amperage 15 mA, frequency 50 Hz, duration of the train of pulses 0.4 sec. duration of each individual pulse 1 msec., interval between pulses 20 msec. As well as the groups treated with ECS, a control group without ECS and a control group with ECS were used.
The retest was carried out after 24 h.
The results are expressed as the percentage variation of the SDL of the treated groups in comparison with the control group by means of this formula: [formula]

[3] = Memory-enhancement activity in the passive avoidance test in the rat; format: in vivo, rat (male Wistar); conditions: rat; for change in vivo at 0.1 mg/kg / change in vivo at 1 mg/kg / change in vivo at 10 mg/kg: 96 h, 6 treatments, read-out: % variation vs controls (FS) in step through latency; for change in vivo at 0.1 mg/kg: 0.1 mg/kg IP; for change in vivo at 0.1 mg/kg / change in vivo at 1 mg/kg / change in vivo at 10 mg/kg / Activity in increasing the avoidance time (in words): retest on the 4th day; for change in vivo at 1 mg/kg: 1 mg/kg IP; for change in vivo at 10 mg/kg: 10 mg/kg IP; for ED30 / Activity in increasing the avoidance time (in words): IP; for ED30: read-out: ED30 (dose increasing the latency time (STL) by 30%)
Experimental: 2) Memory-enhancement activity in the "passive avoidance" test in the rat
A "passive avoidance" model was used, which required a single "step-through" situation and a retest of the "retention memory" 72 h after the training.
Male Wistar rats which weighed about 200 g and had not fasted, were used. The test consisted of evaluating the degree of memory of an animal after it had been trained as follows.
The equipment used was a shuttle box modified thus: one compartment was lined with black card including the cover, and a 60 W lamp was disposed above the other, spaced from the grid floor by about 40 cm. The two compartments were divided by an automatic guillotine-like door. Each animal was placed in the compartment in the light with the guillotine-likedoor open. From this moment, the time taken by the rat to go into the compartment lined with black card (the dark compartment) (the step-throughlatency=STL) was measured. The animals which took more than 30 sec to go into the dark were discarded. Once they had gone into the dark, the door was lowered automatically and a=0.1 mA shock lasting 5 sec (a foot shock=FS) started. After 10 sec, the animal was removed from the shuttle box.
Upon completion, the animals were selected randomly in homogeneous groups and treated with the products.
The retest to determine memory was made after 72 hours. The products were administered chronically in the preselected manner twice per day and the last treatment 30 min before the retest (6 treatments altogether).
The memory-retention test (the retest) consisted of placing each animal, treated 30 min beforehand with a physiological solution or with the product, in the compartment which was not lined with black card for 30 sec.
The results are expressed as the percentage variation of the STL (in seconds) of the groups treated in comparison with the control group by means of this formula: [formula]

[4] = Antidepressant activity in the behavioural despair test in the mouse; format: in vivo, mouse (male CD1); conditions: for inhibition in vivo at 1 mg/kg / inhibition in vivo at 3 mg/kg / inhibition in vivo at 10 mg/kg / inhibition in vivo at 30 mg/kg: 5 min, 5 minutes, read-out: Decrease in immobility (as %) vs the controls; for inhibition in vivo at 1 mg/kg: 1 mg/kg IP; for inhibition in vivo at 3 mg/kg: 3 mg/kg IP; for inhibition in vivo at 10 mg/kg: 10 mg/kg IP; for inhibition in vivo at 30 mg/kg: 30 mg/kg IP; for Antidepressant activity (in words) / ED50 / ED50 (dose antagonising immobility time by 50%): IP; for ED50: read-out: ED50 (dose antagonising immobility time by 50%)
Source text: 5) Antidepressant activity in the "behavioural despair test" Another interesting aspect of the pharmacological activity of these products is the potent antidepressant activity which some of them display in an experimental model in the mouse, in which a state of depression is induced experimentally by the method of Porsolt et al. (Arch. Int. Pharmacodyn. 229, p. 327-336 (1977)). Male CDl mice which weighed about 20-25 g and had not fasted were used. The test consisted of inducing a state of depression in the animal which was subjected to forced swimming in a glass cylinder from which it could not escape. After a short period of vigorous activity the mouse adopted a characteristic posture of immobility which was easily identifiable; this immobility is reduced by antidepressant drugs. 1 l glass beakers, filled to 700 ml with water at a temperature of 25° C. were used for the test. The mice, 8 per group, were treated intraperitoneally with the drug under test, 30 minutes before the test. At time 0, each animal was immersed in a beaker and, after one minute during which all moved about swimming vigorously in order to escape, regardless of treatment, the observer, who was unaware of the treatment, assigned the following points: 0=animal immobile 1=minimum movement to remain afloat 2=vigorous swimming The greater the antidepressant activity of the drug, the more the animals will move about in order to try to escape from the water. The points were assigned every 15 sec for a total period of 5 min with a total of 20 observations. The antidepressant activity was determined with the use of various doses of the compound by the regression method as the ED50, that is, the dose in mg/kg of the compound which could antagonise the animal's immobility time by 50%.

SMILES	IC50 [1] [µM]	Antiamnesic activity (in words) [2]	change in vivo at 3 mg/kg [2] [%]	change in vivo at 10 mg/kg [2] [%]	change in vivo at 30 mg/kg [2] [%]	ED50 [2] [mg/kg]	change in vivo at 0.1 mg/kg [3] [%]	change in vivo at 1 mg/kg [3] [%]	change in vivo at 10 mg/kg [3] [%]	inhibition in vivo at 1 mg/kg [4] [%]	inhibition in vivo at 3 mg/kg [4] [%]	inhibition in vivo at 10 mg/kg [4] [%]	inhibition in vivo at 30 mg/kg [4] [%]	Antidepressant activity (in words) [4]	ED50 [4] [mg/kg]	ED50 (dose antagonising immobility time by 50%) [4]	further results
N[C@@H](CCC(=O)NCCC12CC3CC(CC(C3)C1)C2)C(=O)O [Compound 45]	61.2	less active	3	20	55	28.9	0	0	12								
N[C@@H](CCC(=O)O)C(=O)NCCC12CC3CC(CC(C3)C1)C2 [Compound 16]	15	particularly remarkable	46	50	73	4.6	11	21	57	15	46	77	98	antidepressant effect of the same order of magnitude as the comparison drug used, amitriptyline	3.9		Activity in inhibiting the binding of glutamate (in words) ([1]; rat cortical membranes): considerable activity in inhibiting the binding of the glutamate; change in vivo at 0.1 mg/kg [2]: 0%; change in vivo at 1 mg/kg [2]: 47%; ED30 [3]: 1 mg/kg; Activity in increasing the avoidance time (in words) [3]: considerable activity in increasing the avoidance time
CC1(C)CCC(NC(=O)[C@H](N)CCC(=O)O)CC1 [Compound 24]	> 1000	completely inactive		11			8	0	0		0	16	19	inactive		Inactive	change in vivo at 0.1 mg/kg [2]: 0%; change in vivo at 1 mg/kg [2]: 0%; Activity in increasing the avoidance time (in words) [3]: inactive
CC(C)(C)CCNC(=O)[C@@H](N)CCC(=O)O [Compound 5]	20.1		10		22						12	32	23			Not Calculable	change in vivo at 0.3 mg/kg [2]: 7%
N[C@@H](CCC(=O)O)C(=O)NC1C2CC3CC(C2)CC1C3 (stereo partly shown) [Compound 15]	132										0	33	75		15.4		
CC(C)(C)CCCNC(=O)[C@@H](N)CCC(=O)O [Compound 7]	194										19	51	67		12.3		
CC1(C)CCC(NC(=O)CC[C@H](N)C(=O)O)CC1 [Compound 48, 1-(4,4-dimethylcyclohexyl)-L-glutamine]	70.7						6	0	18	0	9	18	38			Not Calculable	
N[C@@H](CC(=O)O)C(=O)NCCC12CC3CC(CC(C3)C1)C2 [Compound 43]	33.5	less active	19		53	38.3	10	16	29	0	34	60	93	antidepressant effect of the same order of magnitude as the comparison drug used, amitriptyline	6.4		change in vivo at 0.3 mg/kg [2]: 13%; ED30 [3]: 16.9 mg/kg
N[C@@H](CCC(=O)O)C(=O)NC1CCC2CCCCC2C1 (stereo partly shown) [Compound 11]	35.7		3	0	10					5	32	64	19		13.5		
N[C@@H](CCC(=O)O)C(=O)NC12CC3CC(CC(C3)C1)C2 [Compound 14]	73.3										0	0	21			Inactive	
